# In ChEMBL document CHEMBL6120962, “New Mitochondria-Targeted Fisetin Derivative Compromises Mitophagy and Limits Survival of Drug-Induced Senescent Breast Cancer Cells” (J Med Chem, 2024):
# Active and inactive are the calls of the source. The calls are words filed in the database; no cut-off is given here.
# Experiments:
# HCC1428 [1] = test: Anticancer activity against ER-positive human HCC1428 cells assessed as effect on metabolic activity upto 10 uM incubated for 24 hrs by MTT assay; assay type: functional, cell-based
# BJ [2] = test: Cytotoxicity against human BJ cells assessed as effect on metabolic activity at 1 to 10 uM incubated for 24 hrs by MTT assay; assay type: toxicity, cell-based; conditions: dose 1-10 µM
# ZR-75-30 [3] = test: Anticancer activity against ER-positive human ZR-75-30 cells assessed as effect on metabolic activity upto 10 uM incubated for 24 hrs by MTT assay; assay type: functional, cell-based
# CAMA-1 [4] = test: Anticancer activity against ER-positive human CAMA-1 cells assessed as effect on metabolic activity upto 10 uM incubated for 24 hrs by MTT assay; assay type: functional, cell-based
# HCC1428 [5] = test: Induction of mitochondrial dysfunction in human HCC1428 cells assessed as decrease in spare respiratory capacity at 5 uM incubated for 6 hrs by real time analysis; assay type: functional, cell-based
# HCC1428 [6] = test: Induction of mitochondrial dysfunction in human HCC1428 cells assessed as decrease in ATP production at 5 uM incubated for 6 hrs by real time analysis; assay type: functional, cell-based
# [7] = Cytotoxicity against human MCF-10F cells assessed as effect on metabolic activity at 1 to 10 uM incubated for 24 hrs by MTT assay; assay type: toxicity, cell-based; conditions: dose 1-10 µM
# [8] = target: Apoptosis regulator Bcl-2 (Homo sapiens) (UniProt P10415); test: Binding affinity to recombinant human Bcl-2 assessed as interaction by measuring decrease in chemiluminescence signal at 0.01 to 5 uM incubated overnight by dot-blot analysis; conditions: dose 0.01-5 µM
# Sequence of Apoptosis regulator Bcl-2 (Homo sapiens) (P10415 whole entry, the tested form may be a part): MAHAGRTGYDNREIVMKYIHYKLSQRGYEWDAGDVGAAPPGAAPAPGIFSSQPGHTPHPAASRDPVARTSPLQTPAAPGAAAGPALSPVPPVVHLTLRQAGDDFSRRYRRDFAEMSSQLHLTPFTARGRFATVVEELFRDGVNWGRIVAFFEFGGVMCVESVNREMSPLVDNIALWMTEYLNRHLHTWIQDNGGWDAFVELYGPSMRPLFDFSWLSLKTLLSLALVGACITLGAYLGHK
# [9] = target: RAC-alpha serine/threonine-protein kinase (Homo sapiens) (UniProt P31749); test: Binding affinity to recombinant human AKT (14 to 276 residues) assessed as interaction by measuring decrease in chemiluminescence signal at 0.01 to 5 uM incubated overnight by dot-blot analysis; conditions: dose 0.01-5 µM
# Sequence of RAC-alpha serine/threonine-protein kinase (Homo sapiens) (P31749 whole entry, the tested form may be a part): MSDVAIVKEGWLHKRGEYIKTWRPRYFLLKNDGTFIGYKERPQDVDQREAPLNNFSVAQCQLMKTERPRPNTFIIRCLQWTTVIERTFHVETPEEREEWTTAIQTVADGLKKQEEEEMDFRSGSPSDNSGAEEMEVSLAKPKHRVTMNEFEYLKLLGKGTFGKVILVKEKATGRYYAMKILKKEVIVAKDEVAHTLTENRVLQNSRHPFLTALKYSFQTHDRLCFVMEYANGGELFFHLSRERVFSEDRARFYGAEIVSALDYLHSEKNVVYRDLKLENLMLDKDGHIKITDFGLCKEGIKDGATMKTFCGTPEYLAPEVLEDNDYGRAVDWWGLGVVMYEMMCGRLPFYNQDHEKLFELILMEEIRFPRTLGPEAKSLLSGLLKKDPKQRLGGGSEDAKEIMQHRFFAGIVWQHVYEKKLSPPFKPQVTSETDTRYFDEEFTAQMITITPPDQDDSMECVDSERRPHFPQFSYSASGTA
# HCC1428 [10] = test: Induction of mitochondrial dysfunction in human HCC1428 cells assessed as increase in proton leak at 5 uM incubated for 6 hrs by real time analysis; assay type: functional, cell-based
# HCC1428 [11] = test: Induction of mitochondrial dysfunction in human HCC1428 cells assessed as decrease in coupling efficiency at 5 uM incubated for 6 hrs by real time analysis; assay type: functional, cell-based
# HCC1500 [12] = test: Anticancer activity against ER-positive human HCC1500 cells assessed as effect on metabolic activity upto 10 uM incubated for 24 hrs by MTT assay; assay type: functional, cell-based
# HCC1428 [13] = test: Induction of mitochondrial dysfunction in human HCC1428 cells assessed as decrease in maximal respiration at 5 uM incubated for 6 hrs by real time analysis; assay type: functional, cell-based
# MCF7 = test: Antitumor activity against ER-positive human MCF7 cells xenografted in Danio rerio embryo assessed as decrease in tumor size at 1 to 5 uM administered for 48 hrs by imaging analysis; assay type: functional, cell-based; conditions: dose 1-5 µM
# T47D = test: Antitumor activity against ER-positive human T47D cells xenografted in Danio rerio embryo assessed as decrease in tumor size at 1 to 5 uM administered for 48 hrs by imaging analysis; assay type: functional, cell-based; conditions: dose 1-5 µM
# MCF-10F [14] = test: Induction of mitochondrial dysfunction in tamoxifen-induced senescent human MCF-10F cells assessed as increase in proton leak at 5 uM incubated for 6 hrs by real-time analysis; assay type: functional, cell-based
# HCC1428 [15] = test: Induction of autophagosome formation in tamoxifen-induced senescent human HCC1428 cells assessed as increase in LC3B level at 1 to 5 uM by immunostaining based imaging cytometric analysis; assay type: functional, cell-based; conditions: dose 1-5 µM
# HCC1428 [16] = test: Induction of mitochondrial dysfunction in tamoxifen-induced senescent human HCC1428 cells assessed as decrease in coupling efficiency respiration at 5 uM incubated for 6 hrs by real-time analysis; assay type: functional, cell-based
# Mitochondrial membrane [17] = test: Induction of mitochondrial membrane potential depolarization in human ZR-75-30 cells at 1 to 5 uM incubated for 24 hrs by 7-AAD staining based flow cytometric analysis; assay type: cell membranes; conditions: dose 1-5 µM
# MCF-10F [18] = test: Induction of mitochondrial dysfunction in tamoxifen-induced senescent human MCF-10F cells assessed as decrease in ATP production at 5 uM incubated for 6 hrs by real-time analysis; assay type: functional, cell-based
# HCC1428 [19] = test: Induction of mitochondrial dysfunction in tamoxifen-induced senescent human HCC1428 cells assessed as increase in proton leak at 5 uM incubated for 6 hrs by real-time analysis; assay type: functional, cell-based
# ZR-75-30 [20] = test: Induction of apoptosis in human ZR-75-30 cells assessed as phosphatidylserine externalization at 1 to 5 uM incubated for 24 hrs by Annexin V-FITC staining based flow cytometric analysis; assay type: functional, cell-based; conditions: dose 1-5 µM
# HCC1428 [21] = test: Induction of ubiquitin-independent mitophagy in tamoxifen-induced senescent human HCC1428 cells assessed as increase in BNIP3 level at 1 to 5 uM by immunostaining based imaging cytometric analysis; assay type: functional, cell-based; conditions: dose 1-5 µM
# HCC1428 [22] = test: Induction of autophagosome formation in tamoxifen-induced senescent human HCC1428 cells assessed as increase in ubiquitin level at 1 to 5 uM by immunostaining based imaging cytometric analysis; assay type: functional, cell-based; conditions: dose 1-5 µM
# HCC1428 [23] = test: Induction of mitochondrial dysfunction in tamoxifen-induced senescent human HCC1428 cells assessed as decrease in maximal respiration at 5 uM incubated for 6 hrs by real-time analysis; assay type: functional, cell-based
# HCC1428 [24] = test: Induction of ubiquitin-dependent mitophagy in tamoxifen-induced senescent human HCC1428 cells assessed as increase in parkin level at 1 to 5 uM by immunostaining based imaging cytometric analysis; assay type: functional, cell-based; conditions: dose 1-5 µM
# HCC1428 [25] = test: Induction of ubiquitin-dependent mitophagy in tamoxifen-induced senescent human HCC1428 cells assessed as increase in PINK1 level at 1 to 5 uM by immunostaining based imaging cytometric analysis; assay type: functional, cell-based; conditions: dose 1-5 µM
# Mitochondrial membrane [26] = test: Induction of mitochondrial membrane potential depolarization in human HCC1500 cells at 1 to 5 uM incubated for 24 hrs by 7-AAD staining based flow cytometric analysis; assay type: cell membranes; conditions: dose 1-5 µM
# HCC1428 [27] = test: Induction of autophagy in tamoxifen-induced senescent human HCC1428 cells assessed as increase in VPS34 level at 1 to 5 uM by immunostaining based imaging cytometric analysis; assay type: functional, cell-based; conditions: dose 1-5 µM
# HCC1428 [28] = test: Induction of apoptosis in tamoxifen-induced senescent human HCC1428 cells assessed as phosphatidylserine externalization at 1 to 5 uM incubated for 24 hrs by Annexin V-FITC staining based flow cytometric analysis; assay type: functional, cell-based; conditions: dose 1-5 µM
# CAMA-1 [29] = test: Induction of apoptosis in tamoxifen-induced senescent human CAMA-1 cells assessed as phosphatidylserine externalization at 1 to 5 uM incubated for 24 hrs by Annexin V-FITC staining based flow cytometric analysis; assay type: functional, cell-based; conditions: dose 1-5 µM
# MCF-10F [30] = test: Induction of mitochondrial dysfunction in tamoxifen-induced senescent human MCF-10F cells assessed as decrease in spare respiratory capacity at 5 uM incubated for 6 hrs by real-time analysis; assay type: functional, cell-based
# Mitochondrial membrane [31] = test: Induction of mitochondrial membrane potential depolarization in human HCC1428 cells at 1 to 5 uM incubated for 24 hrs by 7-AAD staining based flow cytometric analysis; assay type: cell membranes; conditions: dose 1-5 µM
# HCC1428 [32] = test: Anticancer activity against ER-positive human HCC1428 cells assessed as effect on metabolic activity at 10 uM incubated for 24 hrs by MTT assay; assay type: functional, cell-based
# HCC1428 [33] = test: Induction of apoptosis in human HCC1428 cells assessed as phosphatidylserine externalization at 1 to 5 uM incubated for 24 hrs by Annexin V-FITC staining based flow cytometric analysis; assay type: functional, cell-based; conditions: dose 1-5 µM
# HCC1500 [34] = test: Induction of apoptosis in human HCC1500 cells assessed as phosphatidylserine externalization at 1 to 5 uM incubated for 24 hrs by Annexin V-FITC staining based flow cytometric analysis; assay type: functional, cell-based; conditions: dose 1-5 µM
# MCF-10F [35] = test: Induction of mitochondrial dysfunction in tamoxifen-induced senescent human MCF-10F cells assessed as decrease in coupling efficiency at 5 uM incubated for 6 hrs by real-time analysis; assay type: functional, cell-based
# HCC1428 [36] = test: Induction of alternative mitophagy in tamoxifen-induced senescent human HCC1428 cells assessed as increase in Rab9 level at 1 to 5 uM by immunostaining based imaging cytometric analysis; assay type: functional, cell-based; conditions: dose 1-5 µM
# CAMA-1 [37] = test: Induction of apoptosis in human CAMA-1 cells assessed as phosphatidylserine externalization at 1 to 5 uM incubated for 24 hrs by Annexin V-FITC staining based flow cytometric analysis; assay type: functional, cell-based; conditions: dose 1-5 µM
# BJ [38] = test: Cytotoxicity against human BJ cells assessed as effect on metabolic activity at 10 uM incubated for 24 hrs by MTT assay; assay type: toxicity, cell-based
# HCC1428 [39] = test: Upregulation of BECN1 level in tamoxifen-induced senescent human HCC1428 cells at 1 to 5 uM by immunostaining based imaging cytometric analysis; assay type: functional, cell-based; conditions: dose 1-5 µM
# ZR-75-30 [40] = test: Induction of apoptosis in tamoxifen-induced senescent human ZR-75-30 cells assessed as phosphatidylserine externalization at 1 to 5 uM incubated for 24 hrs by Annexin V-FITC staining based flow cytometric analysis; assay type: functional, cell-based; conditions: dose 1-5 µM
# HCC1428 [41] = test: Induction of autophagy in tamoxifen-induced senescent human HCC1428 cells assessed as increase in ULK1 level at 1 to 5 uM by immunostaining based imaging cytometric analysis; assay type: functional, cell-based; conditions: dose 1-5 µM
# MCF-10F [42] = test: Induction of mitochondrial dysfunction in tamoxifen-induced senescent human MCF-10F cells assessed as decrease in maximal respiration at 5 uM incubated for 6 hrs by real-time analysis; assay type: functional, cell-based
# Mitochondrial membrane [43] = test: Induction of mitochondrial membrane potential depolarization in human CAMA-1 cells at 1 to 5 uM incubated for 24 hrs by 7-AAD staining based flow cytometric analysis; assay type: cell membranes; conditions: dose 1-5 µM
# HCC1428 [44] = test: Induction of apoptosis in tamoxifen-induced senescent human HCC1428 cells assessed as decrease in AKT level at 5 uM incubated for 24 hrs by Western blotting analysis; assay type: functional, cell-based
# HCC1428 [45] = test: Induction of mitochondrial dysfunction in tamoxifen-induced senescent human HCC1428 cells assessed as decrease in spare respiratory capacity at 5 uM incubated for 6 hrs by real-time analysis; assay type: functional, cell-based
# HCC1428 [46] = test: Induction of mitochondrial dysfunction in tamoxifen-induced senescent human HCC1428 cells assessed as decrease in ATP production at 5 uM incubated for 6 hrs by real-time analysis; assay type: functional, cell-based
# HCC1500 [47] = test: Induction of apoptosis in tamoxifen-induced senescent human HCC1500 cells assessed as phosphatidylserine externalization at 1 to 5 uM incubated for 24 hrs by Annexin V-FITC staining based flow cytometric analysis; assay type: functional, cell-based; conditions: dose 1-5 µM
structure (smiles),measurement,setting,value
CC(=O)Oc1c(-c2ccc3c(c2)OC(c2ccccc2)(c2ccccc2)O3)oc2cc(OCCCC[P+](c3ccccc3)(c3ccccc3)c3ccccc3)ccc2c1=O.[I-],Activity,HCC1428 [1],Active
same,Activity,BJ [2],Non-toxic
same,Activity,ZR-75-30 [3],Active
same,Activity,CAMA-1 [4],Active
same,Activity,HCC1428 [5],Active
same,Activity,HCC1428 [6],Active
same,Activity,[7],Non-toxic
same,Activity,[8],Active
same,Activity,[9],Active
same,Activity,HCC1428 [10],Active
same,Activity,HCC1428 [11],Active
same,Activity,HCC1500 [12],Active
same,Activity,HCC1428 [13],Active
O=c1c(O)c(-c2ccc3c(c2)OC(c2ccccc2)(c2ccccc2)O3)oc2cc(O)ccc12,Activity,MCF7,inactive
same,Activity,HCC1428 [5],Active; Slight Effect Observed
same,Activity,T47D,inactive
same,Activity,HCC1428 [6],Active; Slight Effect Observed
same,Activity,[8],Active
same,Activity,[9],Active
same,Activity,HCC1428 [10],Active; Slight Effect Observed
same,Activity,HCC1428 [11],Active; Slight Effect Observed
same,Activity,HCC1428 [13],Active; Slight Effect Observed
O=c1c(O)c(-c2ccc(O)c(O)c2)oc2cc(O)ccc12 [FISETIN],Activity,MCF-10F [14],inactive
same,Activity,HCC1428 [15],inactive
same,Activity,HCC1428 [16],inactive
same,Activity,Mitochondrial membrane [17],inactive
same,Activity,MCF-10F [18],inactive
same,Activity,HCC1428 [19],inactive
same,Activity,ZR-75-30 [20],inactive
same,Activity,HCC1428 [21],inactive
same,Activity,MCF7,inactive
same,Activity,HCC1428 [22],inactive
same,Activity,HCC1428 [23],inactive
same,Activity,HCC1428 [24],inactive
same,Activity,HCC1428 [25],inactive
same,Activity,Mitochondrial membrane [26],inactive
same,Activity,T47D,inactive
same,Activity,HCC1428 [27],inactive
same,Activity,HCC1428 [28],inactive
same,Activity,CAMA-1 [29],inactive
same,Activity,MCF-10F [30],inactive
same,Activity,Mitochondrial membrane [31],inactive
same,Activity,HCC1428 [32],Active
same,Activity,HCC1428 [33],inactive
same,Activity,HCC1500 [34],inactive
same,Activity,MCF-10F [35],inactive
same,Activity,[8],Active
same,Activity,HCC1428 [36],inactive
same,Activity,CAMA-1 [37],inactive
same,Activity,BJ [38],Toxic
same,Activity,HCC1428 [39],inactive
same,Activity,ZR-75-30 [40],inactive
same,Activity,[9],Active
same,Activity,HCC1428 [41],inactive
same,Activity,MCF-10F [42],inactive
same,Activity,Mitochondrial membrane [43],inactive
same,Activity,HCC1428 [44],Active
same,Activity,HCC1428 [45],inactive
same,Activity,HCC1428 [46],inactive
same,Activity,HCC1500 [47],inactive
